According to patent publication US11813306B2, “Cyclic tetramer compounds as proprotein convertase subtilisin/kexin type 9 (PCSK9) inhibitors for the treatment of metabolic disorders” (NOVARTIS AG, priority 2018, dated 2023):

Molecular target: human PCSK9 (Homo sapiens, UniProt Q8NBP7)
Assay: PCSK9 ligand binding assay (TR-FRET): interference with binding of human PCSK9 to human LDLR
Conditions: for IC50: Human PCSK9 Alexa Fluor 647 / Human LDLR extracellular domain-Europium Kryptate; for Max % inhibition: efficacy (Amax), 100% = 1 uM unlabeled human PCSK9, 0% = DMSO
Protocol: Example 10: PCSK9 Ligand Binding Assay
The PCSK9 binding of the compounds of the disclosure were measured using a time resolved fluorescence resonance energy transfer (TR-FRET) assay. This time resolved fluorescence resonance energy transfer (TR-FRET) assay measures the ability of a compound of the present disclosure to interfere with the binding of human PCSK9 to human LDLR, providing measures of both potency (IC50) and efficacy (Amax).
Human PCSK9 Alexa Fluor 647
Human LDLR extracellular domain-Europium Kryptate
Proxi plate-low volume assay plate (PerkinElmer #6008280)
Greiner V-bottom (Greiner BioOne #781280)
Assay Buffer • 20 mM HEPES, pH 7.5 • 150 mM NaCl • 1 mM CaCl2 • 0.01% v/v Tween20 • 0.01% w/v BSA
A master compound plate was prepared in a Greiner V bottom plate by diluting compounds of the disclosure in dimethylsulfoxide to the correct concentration for the desired top concentration based on the desired final concentration: for a 30 uM final concentration the master plate concentration is 1.5 mM (68 uL DMSO+12 uL 10 mM of a compound of the disclosure), for a 10 uM final concentration the master plate concentration is 0.5 mM (76 uL DMSO+4 uL 10 mM of a compound of the disclosure), for a 3 uM final concentration the master plate concentration is 150 uM (69 uL DMSO+1 uL 10 mM of a compound of the disclosure). These solutions were pipetted into columns 1 and 11 of the compound plate. Threefold serial dilutions were generated in columns 2-10 and 12-20 of the compound plate by transferring 10 uL into 20 uL of DMSO. Columns 21 and 22 of the compound plate were negative controls containing DMSO alone.
An intermediate plate was generated in a Greiner V bottom plate by transferring 8 uL from each well of the master plate into a corresponding well containing 92 uL of assay buffer and mixing thoroughly.
A Proxi plate-low volume assay plate was used for the assay. To all wells of the plate was added 10 uL of 16 nM Human PCSK9 Alexa Fluor 647, followed by 5 uL from the intermediate plate. For the positive control wells in columns 23 and 24 of the plate, 5 uL of unlabeled human PCSK9 was added at 4 uM in assay buffer containing 8% DMSO. Following a 30 minute incubation, 5 uL of 4 nM Human LDLR extracellular domain-Europium Kryptate was added and the mixture was incubated for an additional 2 hours.
The TR-FRET signal was measured on an EnVision or PheraStar instrument with a 60 ms delay, 330 nm excitation and 665 nm emission (FRET), and 330 nm excitation and 615 nm (Europium). The FRET ratio (FRET/Europium) was used for calculations.
No inhibition (0%) was observed from the wells containing DMSO (Control) in columns 21 and 22 of the compound plate. Full inhibition (100%) was observed from the wells containing 1 uM human PCSK9 (Control) in columns 23 and 24 of the plate. Data is expressed as percent inhibition: (value—0%)/(100%-0%).

Sequence of human PCSK9 (Q8NBP7 153-692): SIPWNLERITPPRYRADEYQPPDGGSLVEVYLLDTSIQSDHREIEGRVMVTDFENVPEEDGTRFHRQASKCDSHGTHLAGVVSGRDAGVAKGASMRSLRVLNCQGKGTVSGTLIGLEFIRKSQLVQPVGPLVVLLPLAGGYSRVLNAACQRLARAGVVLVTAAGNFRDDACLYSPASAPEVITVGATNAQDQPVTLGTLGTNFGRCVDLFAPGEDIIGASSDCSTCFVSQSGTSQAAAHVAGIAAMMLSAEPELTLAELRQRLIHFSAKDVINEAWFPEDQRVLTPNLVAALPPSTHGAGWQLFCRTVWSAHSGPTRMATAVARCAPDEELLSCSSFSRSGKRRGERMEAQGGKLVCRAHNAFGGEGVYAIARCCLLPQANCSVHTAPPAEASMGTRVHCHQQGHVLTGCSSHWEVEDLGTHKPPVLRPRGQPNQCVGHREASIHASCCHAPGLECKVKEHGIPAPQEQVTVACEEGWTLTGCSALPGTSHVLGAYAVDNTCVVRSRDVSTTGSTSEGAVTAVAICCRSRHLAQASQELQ
Sequence of human PCSK9 (Q8NBP7 31-152 partner limits assumed): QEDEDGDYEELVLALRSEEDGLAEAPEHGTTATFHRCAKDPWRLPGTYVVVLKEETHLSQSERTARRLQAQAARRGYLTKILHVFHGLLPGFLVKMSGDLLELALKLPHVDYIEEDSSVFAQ

| Compound | IC50 | Max % inhibition |
| --- | --- | --- |
| C[C@H]1C[C@H]([C@@H]2CC(=O)N(Cc3ccc(Cl)cc3Oc3ccc(-c4cnc(CN(C)C)n4C)cc3)[C@@H](C)C(=O)N[C@@H](CO)C(=O)N(C)[C@H](Cc3ccc(Cl)cc3)CN(C)C2=O)c2ccccc21.Cl [Compound 81, (2S, 5S, 8R, 12S)-1-(4-chloro-2-(4-(2-((dimethylamino)methyl)-1-methyl-1H-imidazol-5-yl)phenoxy)benzyl)-8-(4-chlorobenzyl)-5-(hydroxymethyl)-2,7,10-trimethyl-12-((1R,3S)-3-methyl-2,3-dihydro-1H-inden-1-yl)-1,4,7,10-tetraazacyclotetradecane-3,6,11,14-tetraone] | 0.95 nM | 105.6% |
| C[C@H]1C(=O)N[C@@H](CO)C(=O)N[C@@]2(Cc3ccc(Cl)cc3)CCCN(C2)C(=O)[C@H](Cc2ccccc2)CC(=O)N1Cc1ccc(Cl)c(F)c1Oc1ccc(-c2cnc(CN(C)C)n2C)cc1 [Compound 25, (3R, 7S, 10S, 13R)-3-benzyl-6-(4-chloro-2-(4-(2-((dimethylamino)methyl)-1-methyl-1H-imidazol-5-yl)phenoxy)-3-fluorobenzyl)-13-(4-chlorobenzyl)-10-(hydroxymethyl)-7-methyl-1,6,9,12-tetraazabicyclo[11.3.1]heptadecane-2,5,8,11-tetraone] | 0.438 nM | 100.8% |
| C[C@H]1C(=O)N[C@@H](COC(F)F)C(=O)N(C)[C@@]2(Cc3ccc(Cl)cc3)CCCN(C2)C(=O)[C@H](CC(F)(F)F)CC(=O)N1Cc1c(F)cc(Cl)cc1Oc1ccc(-c2cnc(CN(C)C)n2C)cc1 [Compound 175, (3S, 7S, 10S, 13R)-6-(4-chloro-2-(4-(2-((dimethylamino)methyl)-1-methyl-1H-imidazol-5-yl)phenoxy)-6-fluorobenzyl)-13-(4-chlorobenzyl)-10-((difluoromethoxy)methyl)-7,12-dimethyl-3-(2,2,2-trifluoroethyl)-1,6,9,12-tetraazabicyclo[11.3.1]heptadecane-2,5,8,11-tetraone] | 2.56 nM | 114.7% |
| C[C@H]1C(=O)N[C@@H](CO)C(=O)N[C@@]2(Cc3ccc(Cl)cc3)CCCN(C2)C(=O)CCC(=O)N1Cc1c(OCC(F)(F)F)cc(Cl)cc1Oc1ccc(-c2cnc(CN(C)C)n2C)cc1 [Compound 36, (7S, 10S, 13R)-6-(4-chloro-2-(4-(2-((dimethylamino)methyl)-1-methyl-1H-imidazol-5-yl)phenoxy)-6-(2,2,2-trifluoroethoxy)benzyl)-13-(4-chlorobenzyl)-10-(hydroxymethyl)-7-methyl-1,6,9,12-tetraazabicyclo[11.3.1]heptadecane-2,5,8,11-tetraone] | 0.584 nM | 104.5% |
| C[C@H]1C(=O)N[C@@H](CO)C(=O)N(C)[C@H](Cc2ccc(Cl)cc2)CN(C)C(=O)[C@H]([C@H]2COc3ccccc32)CC(=O)N1Cc1ccc(Cl)cc1Oc1ccc(-c2cnc(CN3CCCC3)n2C)cc1.Cl [Compound 102, (2S, 5S, 8R, 12S)-1-(4-chloro-2-(4-(1-methyl-2-(pyrrolidin-1-ylmethyl)-1H-imidazol-5-yl)phenoxy)benzyl)-8-(4-chlorobenzyl)-12-((R)-2,3-dihydrobenzofuran-3-yl)-5-(hydroxymethyl)-2,7,10-trimethyl-1,4,7,10-tetraazacyclotetradecane-3,6,11,14-tetraone] | 1.38 nM | 100.8% |
| C[C@H]1C(=O)N[C@@H](CO)C(=O)N[C@@]2(Cc3ccc(Cl)cc3)CCCN(C2)C(=O)[C@H](Cc2ccccc2)CC(=O)N1Cc1c(F)cc(Cl)cc1Oc1ccc(-c2cnc(CN(C)C)n2C)cc1F [Compound 87, (3R, 7S, 10S, 13R)-3-benzyl-6-(4-chloro-2-(4-(2-((dimethylamino)methyl)-1-methyl-1H-imidazol-5-yl)-2-fluorophenoxy)-6-fluorobenzyl)-13-(4-chlorobenzyl)-10-(hydroxymethyl)-7-methyl-1,6,9,12-tetraazabicyclo[11.3.1]heptadecane-2,5,8,11-tetraone] | 0.58 nM | 111.7% |
| C[C@H]1C(=O)N[C@@H](CO)C(=O)N(C)[C@H](Cc2ccc(Cl)cc2)CNC(=O)[C@H](Cc2ccccc2)CC(=O)N1Cc1ccc(Cl)cc1Oc1ccc(-c2cnc(CN3CCCC3)n2C)cc1.Cl [Compound 89, (2S, 5S, 8R, 12R)-12-benzyl-1-(4-chloro-2-(4-(1-methyl-2-(pyrrolidin-1-ylmethyl)-1H-imidazol-5-yl)phenoxy)benzyl)-8-(4-chlorobenzyl)-5-(hydroxymethyl)-2,7-dimethyl-1,4,7,10-tetraazacyclotetradecane-3,6,11,14-tetraone] | 1.51 nM | 104.5% |
| COC[C@@H]1NC(=O)[C@H](C)N(Cc2c(F)cc(Cl)cc2Oc2ccc(-n3cnc(CN4CCCC4)c3C)cc2)C(=O)C[C@@H](Cc2ccccc2)C(=O)N2CCC[C@@](Cc3ccc(Cl)cc3)(C2)NC1=O [Compound 39, (3R, 7S, 10S, 13R)-3-benzyl-6-(4-chloro-2-fluoro-6-(4-(5-methyl-4-(pyrrolidin-1-ylmethyl)-1H-imidazol-1-yl)phenoxy)benzyl)-13-(4-chlorobenzyl)-10-(methoxymethyl)-7-methyl-1,6,9,12-tetraazabicyclo[11.3.1]heptadecane-2,5,8,11-tetraone] | 0.383 nM | 113.2% |

The next lines start with the values.

| IC50 | Max % inhibition | Compound |
| --- | --- | --- |
| 1.3 nM | 114.4% | C[C@H]1C(=O)N[C@@H](CO)C(=O)N[C@@]2(Cc3ccc(Cl)cc3)CCCN(C2)C(=O)[C@H](CC2CC2)CC(=O)N1Cc1ccc(Cl)cc1Oc1ccc(-c2cnc(CN(C)C(C)(C)C)n2C)cc1 [Compound 162, (3R, 7S, 10S, 13R)-6-(2-(4-(2-((tert-butyl(methyl)amino)methyl)-1-methyl-1H-imidazol-5-yl)phenoxy)-4-chlorobenzyl)-13-(4-chlorobenzyl)-3-(cyclopropylmethyl)-10-(hydroxymethyl)-7-methyl-1,6,9,12-tetraazabicyclo[11.3.1]heptadecane-2,5,8,11-tetraone] |
| 3.96 nM | 113.1% | C[C@H]1C(=O)N[C@@H](CO)C(=O)N[C@@]2(Cc3ccc(Cl)cc3)CCCN(C2)C(=O)[C@H](CC2(C)CC2)CC(=O)N1Cc1c(F)cc(Cl)cc1Oc1ccc(-c2cnc(CN(C)C)n2C)cc1 [Compound 144, (3R, 7S, 10S, 13R)-6-(4-chloro-2-(4-(2-((dimethylamino)methyl)-1-methyl-1H-imidazol-5-yl)phenoxy)-6-fluorobenzyl)-13-(4-chlorobenzyl)-10-(hydroxymethyl)-7-methyl-3-((1-methylcyclopropyl)methyl)-1,6,9,12-tetraazabicyclo[11.3.1]heptadecane-2,5,8,11-tetraone] |
| 0.72 nM | 110.6% | C[C@H]1C(=O)N[C@@H](CO)C(=O)N[C@@]2(Cc3ccc(Cl)cc3)CCCN(C2)C(=O)[C@H](CC(F)(F)F)CC(=O)N1Cc1ccc(Cl)cc1Oc1ccc(-c2cnc(CNC(C)(C)C)n2C)cc1 [Compound 147, (3S, 7S, 10S, 13R)-6-(2-(4-(2-((tert-butylamino)methyl)-1-methyl-1H-imidazol-5-yl)phenoxy)-4-chlorobenzyl)-13-(4-chlorobenzyl)-10-(hydroxymethyl)-7-methyl-3-(2,2,2-trifluoroethyl)-1,6,9,12-tetraazabicyclo[11.3.1]heptadecane-2,5,8,11-tetraone] |
| 0.956 nM | 119.9% | COC[C@@H]1NC(=O)[C@H](C)N(Cc2ccc(Cl)cc2Oc2ccc(-c3cnc(CNC(C)(C)C)n3C)cc2)C(=O)C[C@@H](CC(F)(F)F)C(=O)N2CCC[C@@](Cc3ccc(Cl)cc3)(C2)NC1=O [Compound 6, (3S, 7S, 10S, 13R)-6-(2-(4-(2-((tert-butylamino)methyl)-1-methyl-1H-imidazol-5-yl)phenoxy)-4-chlorobenzyl)-13-(4-chlorobenzyl)-10-(methoxymethyl)-7-methyl-3-(2,2,2-trifluoroethyl)-1,6,9,12-tetraazabicyclo[11.3.1]heptadecane-2,5,8,11-tetraone] |
